Experimental data taken from PMC10577883, “Design and Optimization of Novel Competitive, Non-peptidic, SARS-CoV-2 M^pro Inhibitors” (ACS Medicinal Chemistry Letters, 2023).
Values joined by “and” are separate entries in the source; they are usually repeats but may differ in a detail not shown here. Equal values may be shown once.

Experiments:
[1] = tested on: SARS-CoV-2-Nluc reporter virus; assay: microbe, parasite or virus in culture; type: cell-based; details: for EC50: Severe acute respiratory syndrome coronavirus 2, VeroE6/TMPRSS2 cells, parentheses denote 95% confidence intervals
[2] = Mouse liver microsome stability assay; details: for MLM percentage remaining after 30 min: 3 μM, 37 °C; for half-life at 3 µM / remaining at 5 min, 3 µM / remaining at 10 min, 3 µM / remaining at 0.25 h, 3 µM: CD-1, mouse, microsomes
Description: Metabolic Stability Assay
(§1) Liver Microsome Stability Assay Protocol
(§2) Human liver microsomes (HLMs, 20 mg/mL), CD-1 mouse liver microsomes (MLMs, 20 mg/mL), Sprague Dawley
(§3) rat liver microsomes (RLMs, 20 mg/mL) were purchased from Xenotech. NADPH was purchased from Sigma-
(§4) Aldrich and prepared in 10 mM stock solutions of distilled H2O (InvitrogenTM UltraPureTM). Verapamil and
(§5) diphenhydramine were both purchased from Sigma-Aldrich and served as positive controls for LM stability assays.
(§6) Test compounds and positive controls were initially dissolved in DMSO to make 10 mM stock solutions. Sample
(§7) solutions were then further diluted in 100% MeCN to 500 μM. Next, the reactions were prepared by mixing human
(§8) or mouse liver microsomes (55 μL) with potassium phosphate buffer (100 mM, 928 μL) in 1.5 mL Eppendorf tubes.
(§9) The test compounds (6.6 μL of 500 μM solution) were subsequently added to the suspensions, and the reaction
(§10) mixtures were incubated at 37 °C for 5 min. Afterward, the liver microsome reactions were initiated with 110 μL
(§11) of 10 mM NADPH and further incubated at 37 °C for the designated time course of the study. This procedure
(§12) provided experiments with a final volume of 1100 μL (0.6% organic solvent content) and a final test compound
(§13) concentration of 3 μM. Aliquots (100 μL) were removed from each reaction mixture in duplicate at 0, 5, 10, 15,
(§14) and 30 min time intervals and quenched with 100 μL of cold internal standard solution (ISTD, 2 μM
(§15) 7-ethoxy-d 5-coumarin in MeOH or MeCN). Quenched aliquots were then centrifuged at 12,500 g for 5-10 min, and
(§16) the resulting supernatants were withdrawn and placed in LC-MS vials to be analyzed by LC-MS/MS (Agilent
(§17) G6460C QQQ MS coupled with an Infinity II 1260 HPLC). Each test compound was run in tandem with positive and
(§18) negative control experiments for quality assurance. Positive control reactions were conducted at a final volume
(§19) of 550 μL for a single run of each time point. Lastly, the negative control experiment was conducted with test
(§20) compounds and liver microsomes in the absence of NADPH (150 μL) and analyzed at the 30 min time point.
(§21) Data Analysis. Each data point was analyzed in triplicate using in-between blank washes to avoid carry over and
(§22) to equilibrate the column for the subsequent runs. Averages of these triplicates for individual compounds at each
(§23) time point were then normalized to the data at 0 min, representing 100% test compound remaining or 0%
(§24) metabolism. Half-lives (t 1/2) were calculated by plotting ln of % test compound remaining versus time and
(§25) performing linear regression to determine slope.
(§26) Instrumentation and LC-MS/MS Method Development
(§27) LC-MS/MS analyses were conducted on an Agilent 1260 Infinity II HPLC equipped with an Agilent G6460 triple
(§28) quadrupole mass spectrometer (Agilent Technologies, USA). Reverse-phase HPLC separation for each compound
(§29) m) column maintained at 40 °C. The mobile phase used during analyses consisted of either MeOH-H2O (0.1% FA)
(§30) or MeCN-H2O (0.1% FA) at a flow rate of 0.5 mL/min. Each method was developed in the presence of the internal
(§31) standard (ISTD), 7-ethoxy-d 5-coumarin. Precursor and product ion detection was performed with Agilent Jet
(§32) Stream electrospray positive ionization (ESI+) in multiple reaction monitoring (MRM) mode. All MRM transitions,
(§33) MS conditions were as follows: dwell time of 100 ms; gas flow of 10 L/min; nebulizer pressure of 45 psi; delta EMV
(§34) of 200 V. Lastly, all acquired data was processed using Agilent 6460 Quantitative Analysis software.

[3] = Rat liver microsome stability assay; details: 37 °C; for RLM percentage remaining after 30 min: 3 μM; for half-life at 3 µM: RLM t1/2, 3 μM, unit inferred
Description: Metabolic Stability Assay
as §1, §2, §3, §4, §5, §6, §7, §8, §9, §10, §11, §12, §13, §14, §15, §16, §17, §18, §19, §20, §21, §22, §23, §24, §25, §26, §27, §28, §29, §30, §31, §32, §33, §34

[4] = Human liver microsome stability assay; details: for HLM percentage remaining after 30 min: 3 μM, 37 °C; for half-life at 3 µM / remaining at 5 min, 3 µM / remaining at 10 min, 3 µM / remaining at 0.25 h, 3 µM: human, microsomes
Description: Metabolic Stability Assay
as §1, §2, §3, §4, §5, §6, §7, §8, §9, §10, §11, §12, §13, §14, §15, §16, §17, §18, §19, §20, §21, §22, §23, §24, §25, §26, §27, §28, §29, §30, §31, §32, §33, §34

[5] = biological target: SARS-CoV-2 Mpro (3CLpro) (Severe acute respiratory syndrome coronavirus 2, UniProt P0DTD1); assay: SARS-CoV-2 recombinant protease enzymatic assay (FRET); type: biochemical; details: for IC50: recombinant Mpro, FRET peptide substrate
[6] = in vitro; details: chlorocebus sabaeus
[7] = Sprague-Dawley, rat, microsomes

For O=c1[nH]cccc1-c1cn(-c2cc(Cl)cc(OCc3ncsc3C(F)(F)F)c2)c(=O)n(-c2cccnc2)c1=O [Compound 45], which “EC50 range in words” value [1] is on record?
The value was “sub-micromolar”.

What about the EC50 [1] of the same molecule?
The EC50 was 0.82 µM.

And the “MLM percentage remaining after 30 min” value [2]?
The value was 14.4% and 14.41%.

What about the half-life at 3 µM [2] of the same molecule?
Its half-life at 3 µM is 11 min.

And the remaining at 5 min, 3 µM [2]?
Its remaining at 5 min, 3 µM is 54.6%.

And the remaining at 10 min, 3 µM [2]?
Its remaining at 10 min, 3 µM is 43%.

And the remaining at 0.25 h, 3 µM [2]?
The remaining at 0.25 h, 3 µM was 20.6%.

And the “RLM percentage remaining after 30 min” value [3]?
The value was 30.9%.

And the half-life at 3 µM [3, 7]?
The half-life at 3 µM was 18 min.

And the “HLM percentage remaining after 30 min” value [4]?
Its value is 19.5% and 19.47%.

What about the half-life at 3 µM [4] of the same molecule?
Its half-life at 3 µM is 13 min.

And the remaining at 5 min, 3 µM [4]?
The remaining at 5 min, 3 µM was 84.6%.

What about the remaining at 10 min, 3 µM [4] of the same molecule?
The remaining at 10 min, 3 µM was 49.9%.

And the remaining at 0.25 h, 3 µM [4]?
Its remaining at 0.25 h, 3 µM is 48.5%.

And the IC50 [5]?
Its IC50 is 0.012 µM.

And the CC50 [6]?
The CC50 was over 100 µM.

For Cc1scnc1COc1cc(Cl)cc(-n2cc(-c3ccc(=O)[nH]c3)c(=O)n(-c3cccnc3)c2=O)c1 [Compound 51], which EC50 [1] is on record?
Its EC50 is over 20 µM.

What about the IC50 [5] of the same molecule?
The IC50 was 0.12 µM.

And the CC50 [6]?
The CC50 was over 100 µM.

For O=c1[nH]cccc1-c1cn(-c2cc(Cl)cc(OCc3nc4ccccc4n3C(F)F)c2)c(=O)n(-c2cccnc2)c1=O [Compound 38], which EC50 [1] is on record?
Its EC50 is 1.89 µM.

And the IC50 [5]?
The IC50 was 0.021 µM.

And the CC50 [6]?
The CC50 was over 100 µM.

What does the source list for O=c1[nH]cccc1-c1cn(-c2cc(Cl)cc(Cl)c2)c(=O)n(-c2cccnc2)c1=O [Compound 6]?
EC50 range in words [1]: sub-micromolar; EC50 [1]: 0.5 µM; IC50 [5]: 0.276 µM and 0.28 µM; CC50 [6]: > 100 µM

Which results are given for O=c1[nH]cccc1-c1cn(-c2cc(Cl)cc(OCc3nccn3C(F)F)c2)c(=O)n(-c2cccnc2)c1=O [Compound 41]?
EC50 [1]: 6.76 µM; MLM percentage remaining after 30 min [2]: 22.8% and 22.79%; half-life at 3 µM [2]: 14.7 min; remaining at 5 min, 3 µM [2]: 63.8%; remaining at 10 min, 3 µM [2]: 50.2%; remaining at 0.25 h, 3 µM [2]: 37.7%; RLM percentage remaining after 30 min [3]: 90.2% and 90.17%; remaining at 5 min, 3 µM ([3]; Sprague-Dawley, rat, microsomes, RLM Rel % remaining, 5 min): 97.6%; remaining at 10 min, 3 µM ([3]; Sprague-Dawley, rat, microsomes, RLM Rel % remaining, 10 min): 95.2%; remaining at 0.25 h, 3 µM ([3]; Sprague-Dawley, rat, microsomes, RLM Rel % remaining, 15 min): 93.9%; half-life at 3 µM [3, 7]: > 30 min; HLM percentage remaining after 30 min [4]: 70.7%; half-life at 3 µM [4]: > 30 min; remaining at 5 min, 3 µM [4]: 94.5%; remaining at 10 min, 3 µM [4]: 84.4%; remaining at 0.25 h, 3 µM [4]: 66.4%; IC50 [5]: 0.013 µM; CC50 [6]: > 100 µM

Which EC50 [1] does the source give for O=c1[nH]cccc1-c1cn(-c2cc(Cl)cc(OCc3scnc3C(F)(F)F)c2)c(=O)n(-c2cccnc2)c1=O [Compound 37] here?
Its EC50 is 2.4 µM.

What about the IC50 [5] of the same molecule?
Its IC50 is 0.043 µM.

What about the CC50 [6] of the same molecule?
The CC50 was over 100 µM.

For O=c1ccc(-c2cn(-c3cc(Cl)cc(Cl)c3)c(=O)n(-c3cccnc3)c2=O)c[nH]1 [Compound 7], which EC50 [1] is on record?
Its EC50 is over 20 µM.

And the IC50 [5]?
Its IC50 is 1.58 µM and 1.59 µM.

And the CC50 [6]?
Its CC50 is over 100 µM.

With O=c1[nH]cccc1-c1cn(-c2cc(Cl)cc(OCC3CC3)c2)c(=O)n(-c2cccnc2)c1=O [Compound 35] as the molecule, how does the EC50 [1] read?
The EC50 was 0.82 µM.

And the IC50 [5]?
Its IC50 is 0.1 µM.

What about the CC50 [6] of the same molecule?
Its CC50 is over 100 µM.

For Cn1c([N+](=O)[O-])cnc1COc1cc(Cl)cc(-n2cc(-c3ccc[nH]c3=O)c(=O)n(-c3cccnc3)c2=O)c1 [Compound 42], which EC50 [1] is on record?
The EC50 was 19.3 µM.

What about the IC50 [5] of the same molecule?
Its IC50 is 0.012 µM.

And the CC50 [6]?
Its CC50 is over 100 µM.

With Cc1nc(C)c(COc2cc(Cl)cc(-n3cc(-c4ccc[nH]c4=O)c(=O)n(-c4cccnc4)c3=O)c2)s1 [Compound 40] as the molecule, how does the EC50 [1] read?
Its EC50 is 10.2 µM.

What about the IC50 [5] of the same molecule?
The IC50 was 0.016 µM.

What about the CC50 [6] of the same molecule?
Its CC50 is over 100 µM.

Which EC50 [1] does the source give for Cn1cc(COc2cc(Cl)cc(-n3cc(-c4ccc[nH]c4=O)c(=O)n(-c4cccnc4)c3=O)c2)c(C(F)(F)F)n1 [Compound 44] here?
The EC50 was 3.3 µM.

What about the “IC50 range in words” value [5] of the same molecule?
The value was “single-digit nanomolar range”.

What about the IC50 [5] of the same molecule?
The IC50 was 0.0056 µM.

What about the CC50 [6] of the same molecule?
Its CC50 is over 100 µM.

Which EC50 [1] does the source give for Cc1scnc1COc1cc(Cl)cc(-n2cc(-c3ccc[nH]c3=O)c(=O)n(-c3cccnc3)c2=O)c1 [Compound 39] here?
Its EC50 is 5 µM.

What about the IC50 [5] of the same molecule?
Its IC50 is 0.017 µM.

What about the CC50 [6] of the same molecule?
Its CC50 is over 100 µM.
